Data published in patent US20210077461A1, “NEW USE” (Novartis AG, priority 2013, published 2021).

Tests used:
hypertensive patients = conditions: cited from earlier work
[1] = tested on: patients with chronic symptomatic heart failure and reduced ejection fraction (HF-REF); experiment: PARADIGM-HF: safety and tolerability
Experimental: Patients are assessed at each study visit for hyperkalaemia, symptomatic hypotension, increase in serum creatinine, angioedema and other AEs and serious AEs (SAEs). […] The dose of background disease modifying drugs, such as β-blockers, should not be reduced to facilitate maintenance of study drug. Every attempt should be made to re-challenge the patients so as to maintain as many patients as possible on the target dose of study drug.
All identified cases are submitted to an independent angioedema adjudication committee for a final decision.
Thus, this study employed a seamless design, incorporating “Phase II” into a “Phase III” outcomes trial, as considered further in the Discussion. Further interim safety assessments are planned twice a year.

[2] = tested on: patients with chronic symptomatic heart failure and reduced ejection fraction (HF-REF); experiment: PARADIGM-HF randomized double-blind trial, LCZ696 versus enalapril: efficacy outcomes; assay type: in vivo, human; conditions: for Death from any cause, number of patients / Death from any cause, percent of patients / Death from cardiovascular causes or first hospitalization for worsening heart failure (primary composite outcome), number of patients with an event / Death from cardiovascular causes or first hospitalization for worsening heart failure (primary composite outcome), percent of patients / Death from cardiovascular causes, number of patients / Death from cardiovascular causes, percent of patients / Decline in renal function, percent of patients / First hospitalization for worsening heart failure, number of patients / First hospitalization for worsening heart failure, percent of patients / Protocol-defined decline in renal function, number of patients: LCZ696 200 mg bid (N = 4187) or enalapril 10 mg bid (N = 4212); for Death from any cause, number of patients / Death from any cause, percent of patients / Death from cardiovascular causes or first hospitalization for worsening heart failure (primary composite outcome), number of patients with an event / Death from cardiovascular causes or first hospitalization for worsening heart failure (primary composite outcome), percent of patients / Death from cardiovascular causes, number of patients / Death from cardiovascular causes, percent of patients / Decline in renal function, percent of patients / First hospitalization for worsening heart failure, number of patients / First hospitalization for worsening heart failure, percent of patients / Protocol-defined decline in renal function, number of patients / New onset atrial fibrillation, number of patients with an event (as a fraction of number of patients at risk) / New onset atrial fibrillation, percent of patients at risk: median follow-up 27 months; for Progressed to end-stage renal disease, number of patients / New onset atrial fibrillation, number of patients with an event (as a fraction of number of patients at risk) / New onset atrial fibrillation, percent of patients at risk: LCZ696 200 mg bid or enalapril 10 mg bid; for KCCQ clinical summary score, direction of change when zero values were not imputed for patients who died: baseline to month 8
Description: Patients with chronic HF, NYHA functional class II-IV symptoms, an elevated plasma B-type natriuretic peptide (BNP) or NT-proBNP level and, initially, a left ventricular ejection fraction of ≤40% (later amended to ≤35%) are eligible. […] Secondary outcome measures are change in the Kansas City Cardiomyopathy Questionnaire (KCCQ) clinical summary score at 8 months, change in renal function, and time to all-cause mortality.
The trial was designed by the academic members of the Executive Committee (EC) in collaboration with Novartis personnel.
Entry criteria: 1) age 18 years or older and able to give written informed consent 2) New York Heart Association (NYHA) functional class II-IV, 3) left ventricular ejection fraction (LVEF) ≤35% (initially this was ≤40% but changed in a protocol amendment dated Dec. 15, 2010), 4) plasma B-type natriuretic peptide (BNP) ≥150 pg/ml (or N-terminal [NT]-proBNP ≥600 pg/ml) at the screening visit or a BNP ≥100 pg/mL (or NT-proBNP ≥400 pg/ml) and a hospitalization for HF within the last 12 months, 5) treatment with a stable dose of an ACE inhibitor or an ARB equivalent to enalapril 10 mg/d for at least 4 weeks before the screening visit, 6) treatment with stable dose of a β-blocker for at least 4 weeks prior to Visit 1, unless contraindicated or not tolerated. Although not required, the protocol specified that an aldosterone antagonist should also be considered in all patients, taking account of renal function, serum potassium and tolerability. If given, the dose of aldosterone antagonist should be stable for at least 4 weeks prior to the screening visit.
The key exclusion criteria include: • 1. […] Previous history of intolerance to recommended target doses of ACEIs or ARBs. • 3. Known history of angioedema. • 4. Requirement of treatment with both ACEIs and ARBs. • 5. Current acute decompensated heart failure (exacerbation of chronic heart failure manifested by signs and symptoms that may require intravenous therapy). • 6. Symptomatic hypotension and/or a systolic blood pressure (SBP)<100 mmHg at Visit 1 (screening) or <95 mmHg at Visit 3 or at Visit 5 (randomization). • 7. […] Serum potassium >5.2 mmol/L at Visit 1 (screening) or >5.4 mmol/L at Visit 3 or Visit 5 (randomization). • 9. Acute coronary syndrome, stroke, transient ischemic attack, cardiac, carotid or other major CV surgery, percutaneous coronary intervention or carotid angioplasty within the 3 months prior to Visit 1. • 10. Coronary or carotid artery disease likely to require surgical or percutaneous intervention within the 6 months after Visit 1. • 11. Implantation of a cardiac resynchronization therapy device (CRT) within 3 months prior
Visit 1 or intent to implant a CRT. • 12. History of heart transplant or on a transplant list or with left ventricular assistance device. • 13. History of severe pulmonary disease. • 14. Diagnosis of peripartum or chemotherapy induced cardiomyopathy within the 12 months prior to Visit 1. • 15. Documented untreated ventricular arrhythmia with syncopal episodes within the 3 months prior to Visit 1. • 16. Symptomatic bradycardia or second or third degree atrio-ventricular block without a pacemaker. • 17. Presence of haemodynamically significant mitral and/or aortic valve disease, except mitral regurgitation secondary to left ventricular dilatation. • 18. Presence of other haemodynamically significant obstructive lesions of left ventricular outflow tract, including aortic and sub-aortic stenosis. • 19. […] Presence of any other disease with a life expectancy of <5 years.
At the screening visit, patient eligibility was assessed according to the inclusion/exclusion criteria. Any local measurement of LVEF ≤35%, made within the past 6 months, was acceptable provided there was no subsequent LVEF measurement above 35%. Eligibility BNP (and NT-proBNP), serum potassium and estimated glomerular filtration rate (eGFR) were measured in a central laboratory.

HF patients = conditions: cited from earlier work
[3] = in vivo; cited from earlier work
[4] = tested on: patients with heart failure; conditions: cited from earlier work
[5] = zero values imputed for patients who died
[6] = LCZ696 group compared with enalapril group, stratified Cox model
[7] = over the duration of the trial, LCZ696 versus enalapril
[8] = subgroups by base-line treatment

CCOC(=O)[C@H](CCc1ccccc1)N[C@@H](C)C(=O)N1CCC[C@H]1C(=O)O [Enalapril, (2S)-1-[(2S)-2-{[(2S)-1-ethoxy-1-oxo-4-phenylbutan-2-yl]amino}propanoyl]-pyrrolidine-2-carboxylic acid, reference compound]
Incidence of angioedema (hypertensive patients): 0.68%
Angioedema confirmed by blinded adjudication, number of patients ([1]; human, in vivo): 10 patients
Patients who stopped study medication because of renal impairment ([1]; human, in vivo): 1.4%
Patients who stopped study medication for any adverse event ([1]; human, in vivo): 12.3%
Death from any cause, number of patients [2]: 835 patients
Death from any cause, percent of patients [2]: 19.8%
Death from cardiovascular causes or first hospitalization for worsening heart failure (primary composite outcome), number of patients with an event [2]: 1117 patients
Death from cardiovascular causes or first hospitalization for worsening heart failure (primary composite outcome), percent of patients [2]: 26.5%
Death from cardiovascular causes, number of patients [2]: 693 patients
Death from cardiovascular causes, percent of patients [2]: 16.5%
Decline in renal function, percent of patients [2]: 2.6
First hospitalization for worsening heart failure, number of patients [2]: 658 patients
First hospitalization for worsening heart failure, percent of patients [2]: 15.6%
Protocol-defined decline in renal function, number of patients [2]: 108 patients
Progressed to end-stage renal disease, number of patients [2]: 16 patients
New onset atrial fibrillation, number of patients with an event (as a fraction of number of patients at risk) [2]: 83/2638
New onset atrial fibrillation, percent of patients at risk [2]: (3.2)
New onset atrial fibrillation, number of patients with an event (as a fraction of number of patients at risk) ([2]; listed as enalapril): 83 patients
KCCQ clinical summary score, direction of change when zero values were not imputed for patients who died [2]: declined
Mean change in KCCQ Clinical Summary Score from baseline to month 8 [2, 5]: −4.63
Incidence of angioedema (HF patients): 0.5%

CCCCC(=O)N(Cc1ccc(-c2ccccc2-c2nn[n-]n2)cc1)C(C(=O)[O-])C(C)C.CCOC(=O)C(C)CC(Cc1ccc(-c2ccccc2)cc1)NC(=O)CCC(=O)[O-].[Na+].[Na+].[Na+] [LCZ696, trisodium [3-((1S,3R)-1-biphenyl-4-ylmethyl-3-ethoxycarbonyl-1-butylcarbamoyl)propionate-(S)-3′-methyl-2′-(pentanoyl{2″-(tetrazol-5-ylate)biphenyl-4′-ylmethyl}amino)butyrate] hemipentahydrate]
Angioedema confirmed by blinded adjudication, number of patients ([1]; following randomization): 19 patients
Cough as an adverse event, compared with the enalapril group ([1]; following randomization): less and less likely
Experience of serum creatinine level ≥2.5 mg/dl, compared with the enalapril group ([1]; following randomization): less likely
Experience of serum potassium level >6.0 mmol/l, compared with the enalapril group ([1]; following randomization): less likely
Hypotension / report of symptomatic hypotension, compared with the enalapril group ([1]; following randomization): more and more likely
Patients who stopped study medication because of renal impairment ([1]; following randomization): 0.7%
Patients who stopped study medication for any adverse event ([1]; following randomization): 10.7%
Hyperkalemia, compared with the enalapril group ([1]; in vivo): less
Non-serious angioedema, compared with the enalapril group ([1]; in vivo): more
Renal impairment, compared with the enalapril group ([1]; in vivo): less
Death from any cause, number of patients [2]: 711 patients
Death from any cause, percent of patients [2]: 17.0%
Death from cardiovascular causes or first hospitalization for worsening heart failure (primary composite outcome), number of patients with an event [2]: 914 patients
Death from cardiovascular causes or first hospitalization for worsening heart failure (primary composite outcome), percent of patients [2]: 21.8%
Death from cardiovascular causes, number of patients [2]: 558 patients
Death from cardiovascular causes, percent of patients [2]: 13.3%
Decline in renal function, percent of patients [2]: 2.3
First hospitalization for worsening heart failure, number of patients [2]: 537 patients
First hospitalization for worsening heart failure, percent of patients [2]: 12.8%
Protocol-defined decline in renal function, number of patients [2]: 94 patients
Progressed to end-stage renal disease, number of patients [2]: 8 patients
New onset atrial fibrillation, percent of patients at risk [2]: (3.2)
Death from any cause, hazard ratio [2, 6]: 0.84
Death from cardiovascular causes, hazard ratio [2, 6]: 0.80
Decline in renal function, hazard ratio [2, 6]: 0.86
First hospitalization for worsening heart failure, hazard ratio [2, 6]: 0.79
New onset atrial fibrillation, hazard ratio [2, 6]: 0.97
Primary composite outcome, hazard ratio [2, 6]: 0.80
KCCQ clinical summary score change, between-group difference when zero values were not imputed for patients who died ([2]; LCZ696 group versus enalapril group): 0.95
KCCQ clinical summary score change at 8 months, between-group difference ([2]; LCZ696 group versus enalapril group, zero values imputed for patients who died): 1.64
Reduction of the risk of cardiovascular death and the risk of hospitalization for heart failure compared to enalapril ([2]; LCZ696 versus ACE inhibition with enalapril): 20%
Reduction of hospitalization for heart failure compared to enalapril ([2]; LCZ696 versus enalapril): 21%
KCCQ clinical summary score, direction of change when zero values were not imputed for patients who died [2]: improved
Systolic blood pressure at 8 months compared with value at randomization, lower in the LCZ696 group than in the enalapril group ([2]; difference between groups at 8 months): 3.2±0.4 mm Hg
Number of patients needed to treat to prevent one cardiovascular death [2, 7]: 32 patients
Number of patients needed to treat to prevent one primary event [2, 7]: 21 patients
Mean change in KCCQ Clinical Summary Score from baseline to month 8 [2, 5]: −2.99

O=C(N[C@H]1CCS[C@H]2CCC[C@@H](C(=O)O)N2C1=O)[C@@H](S)Cc1ccccc1 [omapatrilat]
Incidence of angioedema (hypertensive patients): 2.17%
BP lowering as compared to other therapeutic classes, including ACE inhibitors and calcium channel blockers [3]: greater BP lowering
Incidence of angioedema (HF patients): 0.8%
Mortality and morbidity in patients with HF relative to enalapril (HF patients): encouraging trend toward reducing mortality and morbidity

CCCCC(=O)N(Cc1ccc(-c2ccccc2-c2nnn[nH]2)cc1)[C@H](C(=O)O)C(C)C [valsartan, (S)—N-valeryl-N-{[2′-(1H-tetrazole-5-yl)-biphenyl-4-yl]-methyl}-valine]
Incidence of the combined end point of mortality and morbidity, lower with valsartan than with placebo ([4]; Val-HeFT): 13.2%
NYHA class, ejection fraction, signs and symptoms of heart failure, and quality of life as compared with placebo ([4]; Val-HeFT): significant improvements
Number of patients hospitalized for heart failure ([4]; Val-HeFT): 346 patients
Overall mortality compared with placebo group ([4]; Val-HeFT): similar
Percent of patients hospitalized for heart failure ([4]; Val-HeFT): 13.8%
Post hoc analysis of the combined end point and mortality, patients receiving both ACE inhibitors and beta-blockers [4, 8]: adverse effect
Post hoc analysis of the combined end point and mortality, patients receiving neither or one of ACE inhibitors or beta-blockers [4, 8]: favorable effect
Combined end point of mortality and morbidity, relative risk ([4]; valsartan versus placebo): 0.87
